Laboratory results reported in patent US8148391B2 (Cephalon, Inc., priority 2006, dated 2012).
Like-named read-outs stand apart in the source and are kept apart here.

What was measured:
[1] = target: T1, c-Met (cytoplasmic domain) (Homo sapiens, UniProt P08581); assay: c-Met Kinase Assay (same methods as for ALK, with modifications); format: biochemical
T1 construct: 10 ng/mL c-Met (cytoplasmic domain, Invitrogen Corporation #PV3143); purchased Invitrogen Corporation PV3143
Method in brief: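 IC50 values were fitted by variable-slope sigmoidal regression of percent inhibition against log compound concentration. Phosphorylation was read with Eu-N1 PT66 antibody after a 15 min, 37 °C reaction. The reaction was initiated with 10 ng/mL c-Met cytoplasmic domain on wells coated with 10 μg/mL PLC-γ in TBS.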

[2] = target: T2, baculovirus-expressed ALK (Homo sapiens, UniProt Q9UM73); assay: ALK Kinase Assay (ELISA-type, time-resolved fluorescence); format: biochemical
T2 construct: host or cells: baculovirus expression system
Method in brief: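 Wells were coated with phospholipase C-γ at 10 μg/mL in Tris-buffered saline. Adding 30 ng/ml enzyme started the reaction, which ran at 37° C for 15 minutes before Eu-N1 PT66 antibody detection. Percent inhibition versus log10 concentration gave IC50 by variable-slope fit.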

[3] = c-Met kinase inhibition, 1 μM ATP (Km level), read-out: cMet Activity
[4] = ALK kinase inhibition, 1 μM ATP (Km level), read-out: ALK Activity
[5] = 1 μM ATP (Km level), 10 ng/mL c-Met, read-out: cMet Activity (c-Met kinase inhibition, IC50 class)
[6] = 1 μM ATP (Km level), 30 ng/ml ALK, 37° C., 15 minutes, read-out: ALK Activity (ALK kinase inhibition, IC50 class)
[7] = c-Met kinase inhibition, 1 μM ATP, read-out: cMet Activity
[8] = ALK kinase inhibition, 1 μM ATP, read-out: ALK Activity
[9] = 1 μM ATP (Km level), read-out: cMet Activity (c-Met Kinase Inhibition, IC50)
[10] = 1 μM ATP (Km level), read-out: ALK Activity (ALK Kinase Inhibition, IC50)

T1 sequence (P08581 956-1390 limits assumed): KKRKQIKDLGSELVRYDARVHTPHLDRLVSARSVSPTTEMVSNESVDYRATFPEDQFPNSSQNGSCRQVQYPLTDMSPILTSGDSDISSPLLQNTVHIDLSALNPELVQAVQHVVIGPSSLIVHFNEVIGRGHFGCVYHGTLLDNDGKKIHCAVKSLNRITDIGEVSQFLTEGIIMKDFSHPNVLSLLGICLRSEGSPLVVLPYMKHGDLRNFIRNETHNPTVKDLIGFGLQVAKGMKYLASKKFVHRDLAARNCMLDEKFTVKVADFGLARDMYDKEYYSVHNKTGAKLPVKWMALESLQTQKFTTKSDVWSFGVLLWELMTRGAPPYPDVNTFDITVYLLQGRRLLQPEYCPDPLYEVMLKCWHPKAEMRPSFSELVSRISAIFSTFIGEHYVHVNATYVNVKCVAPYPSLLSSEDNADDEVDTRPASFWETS
T2 sequence (Q9UM73 19-1620): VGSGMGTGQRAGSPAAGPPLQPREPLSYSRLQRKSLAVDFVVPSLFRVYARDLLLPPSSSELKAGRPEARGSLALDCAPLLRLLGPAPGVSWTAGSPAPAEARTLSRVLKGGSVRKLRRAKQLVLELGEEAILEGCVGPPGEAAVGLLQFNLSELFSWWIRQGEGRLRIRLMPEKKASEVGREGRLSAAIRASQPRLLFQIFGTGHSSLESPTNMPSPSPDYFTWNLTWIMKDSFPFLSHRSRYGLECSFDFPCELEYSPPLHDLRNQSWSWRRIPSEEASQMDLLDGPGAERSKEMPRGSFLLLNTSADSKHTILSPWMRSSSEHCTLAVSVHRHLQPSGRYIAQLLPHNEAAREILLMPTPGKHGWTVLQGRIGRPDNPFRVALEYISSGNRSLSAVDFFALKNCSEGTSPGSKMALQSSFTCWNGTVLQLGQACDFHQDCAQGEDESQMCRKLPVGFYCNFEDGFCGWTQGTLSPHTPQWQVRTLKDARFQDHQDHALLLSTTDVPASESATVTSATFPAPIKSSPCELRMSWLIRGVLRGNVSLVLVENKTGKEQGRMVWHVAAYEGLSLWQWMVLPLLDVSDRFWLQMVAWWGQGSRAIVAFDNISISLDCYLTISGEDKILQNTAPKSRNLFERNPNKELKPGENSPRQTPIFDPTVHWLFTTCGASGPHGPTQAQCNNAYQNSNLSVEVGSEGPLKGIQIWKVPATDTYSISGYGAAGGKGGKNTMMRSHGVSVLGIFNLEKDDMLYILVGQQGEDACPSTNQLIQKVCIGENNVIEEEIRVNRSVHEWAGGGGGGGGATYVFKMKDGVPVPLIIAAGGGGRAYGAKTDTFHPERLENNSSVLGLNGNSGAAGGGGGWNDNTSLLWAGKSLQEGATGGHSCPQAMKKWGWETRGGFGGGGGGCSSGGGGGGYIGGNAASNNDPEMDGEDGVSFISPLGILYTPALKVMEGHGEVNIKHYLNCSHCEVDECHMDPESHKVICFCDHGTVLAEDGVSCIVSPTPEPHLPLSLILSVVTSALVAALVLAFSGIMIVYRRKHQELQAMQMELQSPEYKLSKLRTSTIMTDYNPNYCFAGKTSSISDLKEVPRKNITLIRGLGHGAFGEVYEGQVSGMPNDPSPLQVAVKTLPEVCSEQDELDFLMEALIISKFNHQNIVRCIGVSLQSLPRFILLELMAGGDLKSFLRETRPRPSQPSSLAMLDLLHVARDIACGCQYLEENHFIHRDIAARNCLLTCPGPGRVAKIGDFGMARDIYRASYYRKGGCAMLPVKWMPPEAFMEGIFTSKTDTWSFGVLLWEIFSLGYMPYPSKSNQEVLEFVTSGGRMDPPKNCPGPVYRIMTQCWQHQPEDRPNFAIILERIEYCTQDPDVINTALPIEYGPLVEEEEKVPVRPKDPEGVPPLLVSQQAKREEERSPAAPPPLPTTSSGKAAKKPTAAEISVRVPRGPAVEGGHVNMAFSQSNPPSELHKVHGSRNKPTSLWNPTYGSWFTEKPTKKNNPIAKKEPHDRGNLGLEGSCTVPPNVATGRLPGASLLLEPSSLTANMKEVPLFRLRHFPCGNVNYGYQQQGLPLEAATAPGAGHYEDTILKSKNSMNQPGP

Structure (SMILES)	IC50 [1, 5] [nM]	IC50 [2, 6] [nM]	IC50 [1, 7] [nM]	IC50 [2, 8] [nM]	other results
CNS(=O)(=O)c1ccccc1Nc1nc(Nc2ccc3c(c2)C2CCC3CN(CC#N)C2)ncc1Cl (centres unmarked) [Example 275, 2-[5-Chloro-2-(10-cyanomethyl-10-aza-tricyclo[6.3.2.0*2,7*]trideca-2,4,6-trien-4-ylamino)-pyrimidin-4-ylamino]-N-methyl-benzenesulfonamide]					IC50 [1, 3]: < 100 nM; IC50 [2, 4]: < 100 nM
CCN1CCc2ccc(Nc3ncc(Cl)c(NC(C)CNS(C)(=O)=O)n3)cc2CC1 (centres unmarked) [Example 302, N-{2-[5-Chloro-2-(3-ethyl-2,3,4,5-tetrahydro-1H-benzo[d]azepin-7-ylamino)-pyrimidin-4-ylamino]-propyl}-methanesulfonamide]					IC50 [1, 3]: 1000 to 10000 nM; IC50 [2, 4]: < 100 nM
CNC(=O)c1cccc(F)c1Nc1nc(Nc2ccc3c(c2)-n2cccc2C=CO3)ncc1Cl [Example 1269, 2-[5-Chloro-2-(6-oxa-10b-aza-benz[e]azulen-9-ylamino)-pyrimidin-4-ylamino]-3-fluoro-N-methyl-benzamide]	< 100	100 to 1000			
COCCNC1CCCc2c(ccc(Nc3ncc(Cl)c(Nc4ccccc4S(=O)(=O)C(C)C)n3)c2OC)C1 (centres unmarked) [Example 959, 5-Chloro-N(2)-[1-methoxy-6-(2-methoxy-ethylamino)-6,7,8,9-tetrahydro-5H-benzocyclohepten-2-yl]-N(4)-[2-(propane-2-sulfonyl)-phenyl]-pyrimidine-2,4-diamine]					IC50 [1, 9]: > 10000 nM; IC50 [2, 10]: < 100 nM
COc1cc2c(cc1Nc1ncc(Cl)c(Nc3ccccc3S(=O)(=O)N(C)C)n1)CCN(CC(=O)N1CCOCC1)CC2 [Example 1525, 2-{5-Chloro-2-[8-methoxy-3-(2-morpholin-4-yl-2-oxo-ethyl)-2,3,4,5-tetrahydro-1H-3-benzazepin-7-ylamino]-pyrimidin-4-ylamino}-N,N-dimethyl-benzenesulfonamide]			> 10000	< 100	
COc1cc(N2CCOCC2)ccc1Nc1nc(Nc2ccc3c(c2OC)CCC(NCCO)CC3)ncc1Cl (centres unmarked) [Example 705, 2-{2-[5-Chloro-4-(2-methoxy-4-morpholin-4-yl-phenylamino)-pyrimidin-2-ylamino]-1-methoxy-6,7,8,9-tetrahydro-5H-benzocyclohepten-7-ylamino}-ethanol]					IC50 [1, 9]: > 10000 nM; IC50 [2, 10]: < 100 nM

Second part, led by results:

IC50 [1, 5] [nM]	IC50 [2, 6] [nM]	IC50 [1, 7] [nM]	IC50 [2, 8] [nM]	Structure (SMILES)	other results
100 to 1000	1000 to 10000			Cc1cccc(C(=O)NCC#N)c1Nc1nc(Nc2ccc3c(c2)CCCC(=O)N3C)ncc1Cl [Example 1039, 2-[5-Chloro-2-(1-methyl-2-oxo-2,3,4,5-tetrahydro-1H-benzo[b]azepin-7-ylamino)-pyrimidin-4-ylamino]-N-cyanomethyl-3-methyl-benzamide]	
< 100	< 100			CC1(C)CCC(=O)Nc2ccc(Nc3ncc(Cl)c(Nc4c(F)cccc4C(=O)NCC#N)n3)cc21 [Example 1044, 2-[5-Chloro-2-(5,5-dimethyl-2-oxo-2,3,4,5-tetrahydro-1H-benzo[b]azepin-7-ylamino)-pyrimidin-4-ylamino]-N-cyanomethyl-3-fluoro-benzamide]	
		< 100	< 100	CNC(=O)c1cccc(F)c1Nc1nc(Nc2ccc3c(c2)-n2ccnc2CCC3)ncc1Cl [Example 1837, 2-[5-Chloro-2-(5,6-dihydro-4H-3,10b-diaza-benzo[e]azulen-9-ylamino)-pyrimidin-4-ylamino]-3-fluoro-N-methyl-benzamide]	
		1000 to 10000	< 100	CC(C)CN1C(=O)CCC(C)(C)c2ccc(Nc3ncc(Cl)c(N[C@H]4[C@@H](C(N)=O)[C@@H]5C=C[C@H]4C5)n3)cc21 [Example 1593, (1S,2S,3R,4R)-3-[5-Chloro-2-(1-isobutyl-5,5-dimethyl-2-oxo-2,3,4,5-tetrahydro-1H-benzo[b]azepin-8-ylamino)-pyrimidin-4-ylamino]-bicyclo[2.2.1]hept-5-ene-2-carboxylic acid amide]	
